US20130303509A1, “NAMPT INHIBITORS” (AbbVie Inc., priority 2012, published 2013)

Test system: PC3 cells
Assay: NAMPT Cell Proliferation Assay
Type: cell-based
Conditions: Homo sapiens, PC-3, 120 h, 5 days incubation, cell viability by Cell Titer Glo
Method in brief: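 Seeded at 500 cells/well in RPMI with 10% heat-inactivated FBS and left to attach overnight at 37° C, 5% CO2. Compounds were added as 10-fold dilutions […] for 5 days, then viability was read by CellTiter-Glo. IC50s came from sigmoidal fits of percent inhibition.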

Structure (SMILES) | IC50 [nM]
CC(C)(C)OC(=O)N1CCC(Oc2ccc(NC(=O)[C@H]3CCN(c4cccnc4)C3)cc2)CC1 [Example 8, tert-butyl 4-[4-({[(3S)-1-(pyridin-3-yl)pyrrolidin-3-yl]carbonyl}amino)phenoxy]piperidine-1-carboxylate] | 70.8
O=C(Nc1ccc(C2CCN(C(=O)C3CCCO3)CC2)cc1)[C@H]1CCN(c2cccnn2)C1 (stereo partly drawn) [Example 661, (3S)-1-(pyridazin-3-yl)-N-{4-[1-(tetrahydrofuran-2-ylcarbonyl)piperidin-4-yl]phenyl}pyrrolidine-3-carboxamide] | 21.6
O=C(Nc1ccc(C2CCN(C(=O)c3cccc(OC(F)(F)F)c3)CC2)cc1)C1CN(c2cccnn2)C1 [Example 356, 1-(pyridazin-3-yl)-N-(4-{1-[3-(trifluoromethoxy)benzoyl]piperidin-4-yl}phenyl)azetidine-3-carboxamide] | 9.09
O=C(NC1CN(c2cccnn2)C1)c1ccc(C2CCN(C(=O)c3cccc(F)c3)CC2)s1 [Example 814, 5-[1-(3-fluorobenzoyl)piperidin-4-yl]-N-[1-(pyridazin-3-yl)azetidin-3-yl]thiophene-2-carboxamide] | 81.9
O=C(Nc1ccc(S(=O)(=O)C2CCN(C(=O)c3ccccc3Cl)CC2)cc1)C1CN(c2cccnn2)C1 [Example 611, N-(4-{[1-(2-chlorobenzoyl)piperidin-4-yl]sulfonyl}phenyl)-1-(pyridazin-3-yl)azetidine-3-carboxamide] | 90
N#Cc1ccc(C(=O)N2CCC(c3ccc(NC(=O)[C@H]4CCN(c5cccnn5)C4)cc3)CC2)cc1 [Example 726, (3S)-N-{4-[1-(4-cyanobenzoyl)piperidin-4-yl]phenyl}-1-(pyridazin-3-yl)pyrrolidine-3-carboxamide] | 32.7
O=C(Nc1ccc(C2CCN(C(=O)c3ccc(Cl)cc3Cl)CC2)cc1)[C@H]1CCN(c2cccnn2)C1 [Example 674, (3S)-N-{4-[1-(2,4-dichlorobenzoyl)piperidin-4-yl]phenyl}-1-(pyridazin-3-yl)pyrrolidine-3-carboxamide] | 5.72
O=C(Nc1ccc(C2CCN(C(=O)Cc3ccccc3Cl)CC2)cc1)C1CN(c2cccnn2)C1 [Example 369, N-(4-{1-[(2-chlorophenyl)acetyl]piperidin-4-yl}phenyl)-1-(pyridazin-3-yl)azetidine-3-carboxamide] | 2.14
CC[C@H](C)C(=O)N1CCC(c2ccc(NC(=O)C3CN(c4ccnnc4)C3)cc2)CC1 [Example 143, N-(4-{1-[(2S)-2-methylbutanoyl]piperidin-4-yl}phenyl)-1-(pyridazin-4-yl)azetidine-3-carboxamide] | 4.96
Cc1ccc(C(=O)N2CCC(c3ccc(NC(=O)C4CN(c5cccnn5)C4)cc3)CC2)s1 [Example 377, N-(4-{1-[(5-methylthiophen-2-yl)carbonyl]piperidin-4-yl}phenyl)-1-(pyridazin-3-yl)azetidine-3-carboxamide] | 2.13
CCC(C)CC(=O)N1CCC(c2ccc(NC(=O)C3CN(c4cccnn4)C3)cc2)CC1 (centres unmarked) [Example 323, N-{4-[1-(3-methylpentanoyl)piperidin-4-yl]phenyl}-1-(pyridazin-3-yl)azetidine-3-carboxamide] | 2.81
O=C(Nc1ccc(S(=O)(=O)C2CCN(C(=O)c3ccc(Cl)cc3)CC2)cc1)C1CN(c2cccnn2)C1 [Example 573, N-(4-{[1-(4-chlorobenzoyl)piperidin-4-yl]sulfonyl}phenyl)-1-(pyridazin-3-yl)azetidine-3-carboxamide] | 81.9
O=C(Nc1ccc(C2CCN(C(=O)c3cccc(F)c3F)CC2)cc1)C1CN(c2cccnn2)C1 [Example 390, N-{4-[1-(2,3-difluorobenzoyl)piperidin-4-yl]phenyl}-1-(pyridazin-3-yl)azetidine-3-carboxamide] | 1.5
CCOCC(=O)N1CCC(Oc2ccc(NC(=O)C3CN(c4cccnc4)C3)cc2)CC1 [Example 44, N-(4-{[1-(ethoxyacetyl)piperidin-4-yl]oxy}phenyl)-1-(pyridin-3-yl)azetidine-3-carboxamide] | 5.47
COc1ccc(C(=O)N2CCC(c3ccc(NC(=O)C4CN(c5cccnn5)C4)cc3)CC2)cc1 [Example 347, N-{4-[1-(4-methoxybenzoyl)piperidin-4-yl]phenyl}-1-(pyridazin-3-yl)azetidine-3-carboxamide] | 8.06

The next lines start with the values.

IC50 [nM] | Structure (SMILES)
9.27 | CC(=O)N1CCC(Oc2ccc(NC(=O)C3CN(c4cccnc4)C3)cc2)CC1 [Example 56, N-{4-[(1-acetylpiperidin-4-yl)oxy]phenyl}-1-(pyridin-3-yl)azetidine-3-carboxamide]
16.9 | CC(C)(C(=O)N1CCC(Oc2ccc(NC(=O)C3CN(c4ccnnc4)C3)cc2)CC1)c1ccccc1 [Example 281, N-(4-{[1-(2-methyl-2-phenylpropanoyl)piperidin-4-yl]oxy}phenyl)-1-(pyridazin-4-yl)azetidine-3-carboxamide]
58.9 | Cc1ncccc1N1CC(C(=O)Nc2ccc(C3CCN(C(=O)c4ccccc4F)CC3)cc2)C1 [Example 150, N-{4-[1-(2-fluorobenzoyl)piperidin-4-yl]phenyl}-1-(2-methylpyridin-3-yl)azetidine-3-carboxamide]
7.96 | O=C(Nc1ccc(C2CCN(C(=O)c3cccc(F)c3)CC2)cc1F)C1CN(c2cccnn2)C1 [Example 830, N-{2-fluoro-4-[1-(3-fluorobenzoyl)piperidin-4-yl]phenyl}-1-(pyridazin-3-yl)azetidine-3-carboxamide]
699 | Cc1ncccc1N1CC(C(=O)Nc2ccc(C3CCN(C(=O)c4cccc(Cl)c4)CC3)cc2)C1 [Example 153, N-{4-[1-(3-chlorobenzoyl)piperidin-4-yl]phenyl}-1-(2-methylpyridin-3-yl)azetidine-3-carboxamide]
9.66 | O=C(Nc1ccc(OC2CCN(C(=O)CC3C[C@@H]4CC[C@H]3C4)CC2)cc1)C1CN(c2cccnc2)C1 (stereo partly drawn) [Example 36, N-[4-({1-[(1S,4R)-bicyclo[2.2.1]hept-2-ylacetyl]piperidin-4-yl}oxy)phenyl]-1-(pyridin-3-yl)azetidine-3-carboxamide]
4.22 | O=C(Nc1ccc(OC2CCN(C(=O)CC3CCCC3)CC2)cc1)C1CN(c2cccnc2)C1 [Example 69, N-(4-{[1-(cyclopentylacetyl)piperidin-4-yl]oxy}phenyl)-1-(pyridin-3-yl)azetidine-3-carboxamide]
1300 | Cc1ncccc1N1CC(C(=O)Nc2ccc(C3CCN(C(=O)c4cccnn4)CC3)cc2)C1 [Example 158, 1-(2-methylpyridin-3-yl)-N-{4-[1-(pyridazin-3-ylcarbonyl)piperidin-4-yl]phenyl}azetidine-3-carboxamide]
8.26 | O=C(Nc1ccc(C2CCN(C(=O)CC[N+](=O)[O-])CC2)cc1)C1CN(c2cccnn2)C1 [Example 336, N-{4-[1-(3-nitropropanoyl)piperidin-4-yl]phenyl}-1-(pyridazin-3-yl)azetidine-3-carboxamide]
5.07 | O=C(Nc1ccc(OC2CCN(C(=O)CN3CCOCC3)CC2)cc1)C1CN(c2cccnc2)C1 [Example 60, N-(4-{[1-(morpholin-4-ylacetyl)piperidin-4-yl]oxy}phenyl)-1-(pyridin-3-yl)azetidine-3-carboxamide]
> 10000 | CC(C)(C)OC(=O)N1CCC(Oc2ccc(C(=O)N[C@@H]3CCN(c4cccnc4)C3)cc2)CC1 [Example 28, tert-butyl 4-(4-{[(3R)-1-(pyridin-3-yl)pyrrolidin-3-yl]carbamoyl}phenoxy)piperidine-1-carboxylate]
6.25 | O=C(Nc1ccc(O[C@@H]2CCN(C(=O)c3ccccc3Cl)C2)cc1)C1CN(c2ccnnc2)C1 [Example 442, N-(4-{[(3R)-1-(2-chlorobenzoyl)pyrrolidin-3-yl]oxy}phenyl)-1-(pyridazin-4-yl)azetidine-3-carboxamide]
2.88 | COCCOCC(=O)N1CCC(Oc2ccc(NC(=O)C3CN(c4cccnc4)C3)cc2)CC1 [Example 48, N-[4-({1-[(2-methoxyethoxy)acetyl]piperidin-4-yl}oxy)phenyl]-1-(pyridin-3-yl)azetidine-3-carboxamide]
6.53 | O=C(Nc1ccc(C2CCN(C(=O)c3cccc(O)c3)CC2)cc1)C1CN(c2cccnn2)C1 [Example 343, N-{4-[1-(3-hydroxybenzoyl)piperidin-4-yl]phenyl}-1-(pyridazin-3-yl)azetidine-3-carboxamide]
226 | O=C(Nc1ccc(-c2cnn(CCN3CCNCC3)c2)cc1)C1CN(c2cccnn2)C1 [Example 750, N-(4-{1-[2-(piperazin-1-yl)ethyl]-1H-pyrazol-4-yl}phenyl)-1-(pyridazin-3-yl)azetidine-3-carboxamide]
5.99 | O=C(Nc1ccc(OC2CCN(C(=O)C3CCC(F)(F)CC3)CC2)cc1)C1CN(c2cccnn2)C1 [Example 216, N-[4-({1-[(4,4-difluorocyclohexyl)carbonyl]piperidin-4-yl}oxy)phenyl]-1-(pyridazin-3-yl)azetidine-3-carboxamide]
6.38 | O=C(Nc1ccc(C2CCN(C(=O)Cc3cccc(F)c3)CC2)cc1)C1CN(c2cccnn2)C1 [Example 367, N-(4-{1-[(3-fluorophenyl)acetyl]piperidin-4-yl}phenyl)-1-(pyridazin-3-yl)azetidine-3-carboxamide]
121 | O=C(Nc1ccc(OC2CCN(C(=O)c3ccc(C(F)(F)F)cc3)CC2)cc1)C1CN(c2ccnnc2)C1 [Example 287, 1-(pyridazin-4-yl)-N-[4-({1-[4-(trifluoromethyl)benzoyl]piperidin-4-yl}oxy)phenyl]azetidine-3-carboxamide]
5.85 | O=C(Nc1ccc(C2CCN(C(=O)C3CCC(F)(F)CC3)CC2)cc1)C1CN(c2ccnnc2)C1 [Example 560, N-(4-{1-[(4,4-difluorocyclohexyl)carbonyl]piperidin-4-yl}phenyl)-1-(pyridazin-4-yl)azetidine-3-carboxamide]
7290 | O=C(Nc1ccc(S(=O)(=O)C2CCN(C(=O)c3ccc(F)cc3)CC2)cc1)C1CN(c2ccnnc2)C1 [Example 616, N-(4-{[1-(4-fluorobenzoyl)piperidin-4-yl]sulfonyl}phenyl)-1-(pyridazin-4-yl)azetidine-3-carboxamide]
